Source: ChEMBL document CHEMBL5465560, “Selectivity Literature for EUbOPEN Chemogenomic Library” (2024)

Key:
[1] = target: Casein kinase I isoform gamma-3 (Homo sapiens) (UniProt Q9Y6M4); settings: at 10 µM
[2] = target: Mitogen-activated protein kinase 8 (Homo sapiens, UniProt P45983); assay: Selectivity interaction (Kinase screening (Upstate/Millipore)) EUB0000604a MAPK8
[3] = target: 5'-AMP-activated protein kinase catalytic subunit alpha-2 (Homo sapiens) (UniProt P54646); assay: Selectivity interaction (Ambit KINOMEscan and KiNATiv profiling in Jurkat cells) EUB0000090b PRKAA2; type: cell-based; settings: at 1 µM
Chain of 5'-AMP-activated protein kinase catalytic subunit alpha-2 (Homo sapiens) (P54646 whole entry, looked up): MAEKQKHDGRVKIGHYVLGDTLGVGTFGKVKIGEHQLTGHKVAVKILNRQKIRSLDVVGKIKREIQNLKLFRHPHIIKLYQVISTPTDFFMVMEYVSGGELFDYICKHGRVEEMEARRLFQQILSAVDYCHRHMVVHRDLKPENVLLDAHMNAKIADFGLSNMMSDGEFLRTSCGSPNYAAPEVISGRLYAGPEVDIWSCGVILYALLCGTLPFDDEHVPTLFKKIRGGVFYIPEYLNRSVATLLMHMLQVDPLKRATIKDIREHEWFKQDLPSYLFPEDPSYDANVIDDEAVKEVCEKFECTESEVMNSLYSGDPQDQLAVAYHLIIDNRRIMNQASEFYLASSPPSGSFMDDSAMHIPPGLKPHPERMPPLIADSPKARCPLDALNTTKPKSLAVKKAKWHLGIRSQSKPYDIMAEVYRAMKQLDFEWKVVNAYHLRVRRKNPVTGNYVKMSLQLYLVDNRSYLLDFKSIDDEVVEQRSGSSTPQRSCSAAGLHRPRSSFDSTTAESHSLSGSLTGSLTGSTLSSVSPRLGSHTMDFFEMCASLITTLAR

[4] = target: SRSF protein kinase 2 (Homo sapiens) (UniProt P78362); assay: Selectivity interaction (Ambit KINOMEscan and KiNATiv profiling in Jurkat cells) EUB0000090b SRPK2; type: cell-based; settings: at 1 µM
Chain of SRSF protein kinase 2 (Homo sapiens) (P78362 whole entry, looked up): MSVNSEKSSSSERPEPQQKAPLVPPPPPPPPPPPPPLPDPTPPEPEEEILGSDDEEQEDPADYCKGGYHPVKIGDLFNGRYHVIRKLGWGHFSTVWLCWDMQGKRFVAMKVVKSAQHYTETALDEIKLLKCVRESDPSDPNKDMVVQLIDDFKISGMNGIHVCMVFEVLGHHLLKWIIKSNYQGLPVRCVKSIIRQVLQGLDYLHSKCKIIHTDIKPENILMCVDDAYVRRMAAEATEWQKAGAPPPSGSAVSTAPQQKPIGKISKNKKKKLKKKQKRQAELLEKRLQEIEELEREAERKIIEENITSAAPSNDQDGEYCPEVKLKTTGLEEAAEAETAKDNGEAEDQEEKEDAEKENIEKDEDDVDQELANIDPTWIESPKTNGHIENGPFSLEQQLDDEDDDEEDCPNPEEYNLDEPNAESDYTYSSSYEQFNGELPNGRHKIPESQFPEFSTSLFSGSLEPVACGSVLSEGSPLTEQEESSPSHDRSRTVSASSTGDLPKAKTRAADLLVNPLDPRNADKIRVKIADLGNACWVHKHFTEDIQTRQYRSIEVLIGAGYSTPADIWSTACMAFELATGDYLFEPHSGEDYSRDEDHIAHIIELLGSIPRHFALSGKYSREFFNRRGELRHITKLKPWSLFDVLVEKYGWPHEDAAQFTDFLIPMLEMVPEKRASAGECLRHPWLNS

[5] = target: Serine/threonine-protein kinase mTOR (Homo sapiens, UniProt P42345); assay: Selectivity interaction (Kinase panel (antibody-dependent TR-FRET assay, phosphorylation of 4EBP-1 catalyzed by recombinant mTOR)) EUB0000877a MTOR
[6] = target: Serine/threonine-protein kinase PLK1 (Homo sapiens, UniProt P53350); assay: Selectivity interaction (Kinase panel (literature)) EUB0001199aCl PLK1; settings: at 1 µM
Chain of Serine/threonine-protein kinase PLK1 (P53350 whole entry): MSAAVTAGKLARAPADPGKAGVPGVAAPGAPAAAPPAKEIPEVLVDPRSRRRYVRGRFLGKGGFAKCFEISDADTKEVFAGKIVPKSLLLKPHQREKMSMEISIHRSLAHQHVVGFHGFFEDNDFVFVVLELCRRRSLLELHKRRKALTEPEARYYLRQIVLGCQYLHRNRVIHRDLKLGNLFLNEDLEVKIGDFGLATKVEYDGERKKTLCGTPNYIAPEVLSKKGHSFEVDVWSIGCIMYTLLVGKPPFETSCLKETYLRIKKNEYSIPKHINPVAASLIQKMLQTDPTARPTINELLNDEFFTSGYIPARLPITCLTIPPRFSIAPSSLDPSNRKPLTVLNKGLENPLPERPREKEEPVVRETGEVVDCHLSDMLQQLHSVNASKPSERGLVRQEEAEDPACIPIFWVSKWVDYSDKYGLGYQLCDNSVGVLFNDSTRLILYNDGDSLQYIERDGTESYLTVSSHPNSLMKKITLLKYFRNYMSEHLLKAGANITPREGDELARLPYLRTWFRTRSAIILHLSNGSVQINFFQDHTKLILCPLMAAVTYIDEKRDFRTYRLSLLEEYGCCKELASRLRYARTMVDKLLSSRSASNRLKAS

[7] = target: T1, Serine/threonine-protein kinase TAO1 (Homo sapiens) (UniProt Q7L7X3); assay: Selectivity interaction (LanthaScreen Eu Kinase Binding Assay) EUB0001632a TAOK1; settings: at 10 µM
T1 sequence (whole entry): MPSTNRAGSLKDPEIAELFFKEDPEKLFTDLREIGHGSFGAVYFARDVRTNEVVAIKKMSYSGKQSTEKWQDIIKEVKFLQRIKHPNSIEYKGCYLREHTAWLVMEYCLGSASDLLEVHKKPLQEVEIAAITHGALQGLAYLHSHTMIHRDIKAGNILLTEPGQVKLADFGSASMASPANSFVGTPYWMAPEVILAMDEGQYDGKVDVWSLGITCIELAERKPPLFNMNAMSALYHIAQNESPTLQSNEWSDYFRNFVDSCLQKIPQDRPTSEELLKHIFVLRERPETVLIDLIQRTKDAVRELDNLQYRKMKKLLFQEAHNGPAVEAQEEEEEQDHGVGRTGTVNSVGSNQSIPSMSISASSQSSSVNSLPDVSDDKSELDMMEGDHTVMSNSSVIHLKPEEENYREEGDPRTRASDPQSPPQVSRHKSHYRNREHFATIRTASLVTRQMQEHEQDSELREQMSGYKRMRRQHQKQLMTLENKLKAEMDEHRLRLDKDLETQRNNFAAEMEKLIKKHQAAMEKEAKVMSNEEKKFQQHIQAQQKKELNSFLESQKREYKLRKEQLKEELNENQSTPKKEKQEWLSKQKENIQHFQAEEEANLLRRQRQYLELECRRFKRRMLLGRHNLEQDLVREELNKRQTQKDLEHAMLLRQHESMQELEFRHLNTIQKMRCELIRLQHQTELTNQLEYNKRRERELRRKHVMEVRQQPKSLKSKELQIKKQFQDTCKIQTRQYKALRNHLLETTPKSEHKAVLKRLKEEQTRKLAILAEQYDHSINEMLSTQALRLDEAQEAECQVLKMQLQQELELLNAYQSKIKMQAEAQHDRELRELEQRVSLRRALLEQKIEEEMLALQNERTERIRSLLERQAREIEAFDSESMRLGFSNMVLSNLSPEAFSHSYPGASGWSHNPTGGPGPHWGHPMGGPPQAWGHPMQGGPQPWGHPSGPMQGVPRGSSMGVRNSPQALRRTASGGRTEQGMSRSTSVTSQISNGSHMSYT

[8] = target: STE20-like serine/threonine-protein kinase (Homo sapiens, UniProt Q9H2G2); assay: Selectivity interaction (KinomeScan (DiscoverX)) EUB0000595a SLK; settings: at 10 µM
Chain of STE20-like serine/threonine-protein kinase (Q9H2G2 whole entry, looked up): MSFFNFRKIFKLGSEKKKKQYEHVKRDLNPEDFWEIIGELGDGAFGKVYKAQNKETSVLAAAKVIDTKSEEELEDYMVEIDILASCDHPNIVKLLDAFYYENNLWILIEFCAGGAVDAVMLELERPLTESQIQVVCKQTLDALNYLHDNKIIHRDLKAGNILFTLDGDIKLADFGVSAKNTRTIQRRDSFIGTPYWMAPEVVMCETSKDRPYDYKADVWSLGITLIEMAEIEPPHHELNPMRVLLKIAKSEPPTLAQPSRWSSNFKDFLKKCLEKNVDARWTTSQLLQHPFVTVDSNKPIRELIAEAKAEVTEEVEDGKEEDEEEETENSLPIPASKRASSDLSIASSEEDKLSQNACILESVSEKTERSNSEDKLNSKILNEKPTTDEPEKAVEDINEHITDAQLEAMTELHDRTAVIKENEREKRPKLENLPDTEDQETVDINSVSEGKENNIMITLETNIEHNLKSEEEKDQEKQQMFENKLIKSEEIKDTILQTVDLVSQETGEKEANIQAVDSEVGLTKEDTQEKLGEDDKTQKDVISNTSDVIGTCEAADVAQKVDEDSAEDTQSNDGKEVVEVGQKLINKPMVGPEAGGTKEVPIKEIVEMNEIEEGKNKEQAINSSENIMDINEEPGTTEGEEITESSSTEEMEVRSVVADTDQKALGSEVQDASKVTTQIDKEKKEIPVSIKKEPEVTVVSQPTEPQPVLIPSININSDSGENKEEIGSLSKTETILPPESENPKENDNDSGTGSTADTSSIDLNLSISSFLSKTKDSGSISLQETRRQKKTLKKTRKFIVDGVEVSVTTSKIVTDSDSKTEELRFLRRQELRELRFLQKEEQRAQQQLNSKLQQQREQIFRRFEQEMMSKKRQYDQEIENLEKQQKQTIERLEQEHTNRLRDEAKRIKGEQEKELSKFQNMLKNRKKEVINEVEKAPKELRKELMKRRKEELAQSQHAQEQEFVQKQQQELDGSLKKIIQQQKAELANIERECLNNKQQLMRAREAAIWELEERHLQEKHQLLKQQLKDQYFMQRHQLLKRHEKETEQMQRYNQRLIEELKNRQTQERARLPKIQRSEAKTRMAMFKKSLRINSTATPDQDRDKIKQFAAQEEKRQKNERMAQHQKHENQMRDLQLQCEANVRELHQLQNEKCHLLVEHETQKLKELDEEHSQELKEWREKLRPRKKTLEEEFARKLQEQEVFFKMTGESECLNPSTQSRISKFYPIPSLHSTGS

[9] = target: T2, Serine/threonine-protein kinase ULK3 (Homo sapiens) (UniProt Q6PHR2); assay: Selectivity interaction (KinomeScan (DiscoverX)) EUB0000092b ULK3; settings: at 10 µM
T2 sequence (whole entry): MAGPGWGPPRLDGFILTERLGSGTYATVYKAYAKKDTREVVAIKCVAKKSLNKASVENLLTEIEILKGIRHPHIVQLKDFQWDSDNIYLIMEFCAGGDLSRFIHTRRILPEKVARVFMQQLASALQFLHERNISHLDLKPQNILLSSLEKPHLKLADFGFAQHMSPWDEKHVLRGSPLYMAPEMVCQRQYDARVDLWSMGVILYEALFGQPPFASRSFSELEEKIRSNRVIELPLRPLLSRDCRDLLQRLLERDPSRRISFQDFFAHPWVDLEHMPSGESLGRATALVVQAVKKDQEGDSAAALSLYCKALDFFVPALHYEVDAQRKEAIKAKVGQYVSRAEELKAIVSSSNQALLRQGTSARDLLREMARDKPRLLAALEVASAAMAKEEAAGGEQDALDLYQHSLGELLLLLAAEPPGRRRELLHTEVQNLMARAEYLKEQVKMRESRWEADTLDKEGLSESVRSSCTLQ

[10] = target: Hepatocyte growth factor-like protein (Homo sapiens) (UniProt P26927); assay: Selectivity interaction (Kinase panel (Eurofins)) EUB0001564a MST1; settings: at 1 µM
[11] = target: T3, Mitogen-activated protein kinase 13 (Homo sapiens) (UniProt O15264); assay: Selectivity interaction (Upstate Kinase Profiler service (Millipore)) EUB0000056c MAPK13; settings: at 1 µM
T3 sequence (whole entry): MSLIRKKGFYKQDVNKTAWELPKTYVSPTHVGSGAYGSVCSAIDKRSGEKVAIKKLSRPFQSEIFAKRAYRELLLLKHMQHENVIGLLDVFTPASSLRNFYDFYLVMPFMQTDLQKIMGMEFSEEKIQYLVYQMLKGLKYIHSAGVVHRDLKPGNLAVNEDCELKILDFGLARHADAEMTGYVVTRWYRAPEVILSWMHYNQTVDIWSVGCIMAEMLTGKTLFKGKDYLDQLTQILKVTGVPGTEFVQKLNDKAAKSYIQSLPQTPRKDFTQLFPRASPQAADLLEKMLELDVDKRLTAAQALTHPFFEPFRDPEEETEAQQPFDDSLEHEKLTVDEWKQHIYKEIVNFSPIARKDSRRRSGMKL

[12] = target: Serine/threonine-protein kinase B-raf (Homo sapiens) (UniProt P15056); assay: (§1) Selectivity interaction (KinomeScan (DiscoverX)) EUB0000607a BRAF; settings: at 10 µM
Chain of Serine/threonine-protein kinase B-raf (Homo sapiens) (P15056 whole entry): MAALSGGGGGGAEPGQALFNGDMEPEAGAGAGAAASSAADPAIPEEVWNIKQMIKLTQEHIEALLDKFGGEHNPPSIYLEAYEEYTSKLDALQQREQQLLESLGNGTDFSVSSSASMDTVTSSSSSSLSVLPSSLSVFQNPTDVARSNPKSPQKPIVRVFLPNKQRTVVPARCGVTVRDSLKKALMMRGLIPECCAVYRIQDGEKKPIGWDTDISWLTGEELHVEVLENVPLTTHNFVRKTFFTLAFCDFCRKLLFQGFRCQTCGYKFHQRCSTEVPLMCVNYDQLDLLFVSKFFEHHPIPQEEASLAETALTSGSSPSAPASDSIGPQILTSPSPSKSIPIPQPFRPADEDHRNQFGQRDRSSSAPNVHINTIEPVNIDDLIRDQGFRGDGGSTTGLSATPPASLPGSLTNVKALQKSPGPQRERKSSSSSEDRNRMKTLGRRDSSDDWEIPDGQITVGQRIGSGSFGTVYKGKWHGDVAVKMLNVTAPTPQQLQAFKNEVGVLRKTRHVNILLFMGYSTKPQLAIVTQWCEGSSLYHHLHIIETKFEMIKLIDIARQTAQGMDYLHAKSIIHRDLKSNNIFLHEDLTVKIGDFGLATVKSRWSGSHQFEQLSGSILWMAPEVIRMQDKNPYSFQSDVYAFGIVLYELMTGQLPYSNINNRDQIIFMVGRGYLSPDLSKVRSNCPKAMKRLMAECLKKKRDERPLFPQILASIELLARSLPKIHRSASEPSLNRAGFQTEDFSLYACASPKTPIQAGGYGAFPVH

[13] = test system: Serine/threonine-protein kinase B-raf (Homo sapiens), P15056 [V600E]; assay: as §1; settings: at 10 µM
Chain of Serine/threonine-protein kinase B-raf (Homo sapiens), P15056 [V600E] (P15056 whole entry V600E): as the sequence (P15056 whole entry) above, with V600E counted along it

[14] = target: T2, Serine/threonine-protein kinase ULK3 (Homo sapiens); assay: Selectivity interaction (Kinase panel (KiNativ target engagement assay in Jurkat cells)) EUB0001635a ULK3; type: cell-based; settings: at 1 µM

Chain of Mitogen-activated protein kinase 8 (P45983 whole entry): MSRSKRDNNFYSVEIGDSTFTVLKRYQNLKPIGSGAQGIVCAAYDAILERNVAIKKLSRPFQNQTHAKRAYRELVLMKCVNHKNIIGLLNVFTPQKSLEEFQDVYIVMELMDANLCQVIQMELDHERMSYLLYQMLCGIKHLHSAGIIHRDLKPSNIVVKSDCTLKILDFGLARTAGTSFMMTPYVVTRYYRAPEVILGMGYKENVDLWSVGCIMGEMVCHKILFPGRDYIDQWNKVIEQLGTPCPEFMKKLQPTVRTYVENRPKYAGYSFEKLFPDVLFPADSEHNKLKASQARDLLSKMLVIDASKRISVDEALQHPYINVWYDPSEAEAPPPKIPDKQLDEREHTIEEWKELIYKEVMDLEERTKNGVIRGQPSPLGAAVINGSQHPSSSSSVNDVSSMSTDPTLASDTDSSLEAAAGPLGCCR
Chain of Casein kinase I isoform gamma-3 (Homo sapiens) (Q9Y6M4 whole entry, looked up, canonical isoform): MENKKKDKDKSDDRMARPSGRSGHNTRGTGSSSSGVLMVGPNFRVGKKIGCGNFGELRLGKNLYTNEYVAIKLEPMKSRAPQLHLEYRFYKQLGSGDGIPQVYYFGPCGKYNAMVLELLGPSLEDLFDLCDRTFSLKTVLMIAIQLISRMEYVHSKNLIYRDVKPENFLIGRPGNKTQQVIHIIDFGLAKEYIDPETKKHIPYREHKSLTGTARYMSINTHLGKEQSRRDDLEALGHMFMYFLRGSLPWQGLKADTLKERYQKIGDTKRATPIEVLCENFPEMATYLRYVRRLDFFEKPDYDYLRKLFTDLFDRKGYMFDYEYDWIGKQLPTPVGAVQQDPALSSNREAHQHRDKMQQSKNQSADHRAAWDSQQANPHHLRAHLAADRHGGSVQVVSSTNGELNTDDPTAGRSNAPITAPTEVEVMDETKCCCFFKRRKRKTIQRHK

Cc1cc([C@@H](C)Nc2ccccc2C(=O)O)c2nc(N3CCOCC3)cc(=O)n2c1 [AZD-6482]
% of control [1]: 100%

Cc1cnc(Nc2ccc(F)cc2Cl)nc1-c1c[nH]c(C(=O)N[C@H](CO)c2cccc(Cl)c2)c1
% of inhibition [2]: 34%

CN(C)C/C=C/C(=O)Nc1ccc(C(=O)N2CCCC(Nc3ncc(Cl)c(-c4c[nH]c5ccccc45)n3)C2)cc1 (stereo not given)
% of control [3]: 98%
% of control [4]: 98%

CCC(=O)N1CC[C@H](Nc2ncnc3c2CN(c2cnc(OC)c(C(F)(F)F)c2)CC3)C1 [LENIOLISIB]
IC50 [5]: > 9.1 µM

CN1Cc2nccc(-c3cn(C)nc3-c3ccc(F)cc3)c2C1=O
% of inhibition [6]: -3%

Cn1cc(-n2cnc3c(NCc4nc5cc(Cl)c(Cl)cc5[nH]4)nc(N4CCOCC4)nc32)cn1
% of inhibition [7]: 31.8%

COCC(=O)NC/C=C/c1ccc2ncnc(Nc3ccc(Oc4ccc(C)nc4)c(C)c3)c2c1 [CP-724714]
% of control [8]: 60%

CCC(=O)N1CCN(c2ccc(-n3c(=O)ccc4cnc5ccc(-c6cnc7ccccc7c6)cc5c43)cc2C(F)(F)F)CC1
% of control [9]: 100%

CC[C@@H](Nc1c(C#N)c(-c2ccc(-c3cccc(C)c3F)cc2)nc2cnccc12)C(=O)O [BAY-091]
% of inhibition [10]: 20.6%

Cc1ccc(-c2ccc3c(ccc4sc5c(c43)NC[C@@H](C)NC5=O)n2)cn1
% of inhibition [11]: 6%

CNC(=O)Nc1ccc(-c2nc(N3CC4CCC(C3)O4)c3cnn(C4CCC5(CC4)OCCO5)c3n2)cc1
% of control [12]: 100%
% of control [13]: 100%

C=CC(=O)Nc1ccc(C(=O)Nc2[nH]nc3c2CN(C(=O)N[C@H](CN(C)C)c2ccccc2)C3(C)C)cc1
% of engagement ([14]; Selectivity number of off-targets 0.0, Selectivity number of targets 233.0, Source Knowledge https://www.sciencedirect.com/science/article/pii/S2451945619300674?via%3Dihub): -7.1%
% of engagement [14]: -1.1%
